# From US9771351B2, “Wnt signaling inhibitor” (KYOWA HAKKO KIRIN CO., LTD., priority 2013, dated 2017)
# Read-outs that look alike come from different tables or passages of the source.
# Experiments:
# [1] = test system: T-cell factor (TCF)-luciferase reporter using Wnt pathway as index; test: Inhibitory activity against TCF-luciferase reporter using Wnt pathway as index (DLD-1/TCF-Luc cells); assay type: cell-based, human; details: for inhibition at 1 µM: Homo sapiens, read-out: Inhibition ratio (%) at 1 μmol/L
# Procedure: Test Example 1: Inhibitory Activity Against T-Cell Factor (TCF)-Luciferase Reporter Using Wnt Pathway as Index
# The inhibitory activity of test compounds against Wnt pathway was evaluated by the following method.
# A human colorectal adenocarcinoma cell line DLD-1 (Japanese Collection of Research Bioresources) was cultured in RPMI-1640 medium (Gibco/Life Technologies, Inc.) containing 10% fetal bovine serum (Gibco/Life Technologies, Inc.), 10 mmol/L of a 4-(2-hydroxyethyl)-1-piperazineethanesulfonic acid (HEPES) buffer solution (Gibco/Life Technologies, Inc.), 1 mmol/L of a sodium pyruvate solution (Gibco/Life Technologies, Inc.), 4.5 g/L of a D-(+)-glucose solution (Sigma-Aldrich, Inc.), 100 units/mL penicillin (Gibco/Life Technologies, Inc.) and 100 μg/mL of streptomycin (Gibco/Life Technologies, Inc.) under the conditions of 37° C. and 5% carbon dioxide gas. The DLD-1 cells were seeded in a 10 cm dish, and 20 μg of a luciferase gene plasmid pGL4.27 having a TCF responsive sequence inserted therein was transfected into the cells using 10 μL of Attractene (Qiagen, Inc.) according to the protocol attached to the product. A stably expressing cell line (DLD-1/TCF-Luc) was selected using […] of hygromycin B (Wako Pure Chemical Industries Ltd.). The DLD-1/TCF-Luc cells were detached with trypsin and seeded in a 384-well plate, and a test compound was added at different concentrations. After 18 hours, the luciferase activity was measured using Steady-Glo™ Luciferase Assay System (Promega, Inc.).
# The inhibition ratio was obtained according to the following formula 1. The inhibition ratio (%) of the compound of the present invention at 1 μmol/L against the TCF-luciferase reporter using the Wnt pathway as an index is shown in Table 6. [Math. 1] Inhibition ratio (%)=100−{(luciferase activity when test compound was added)−(luciferase activity of blank)}/{(luciferase activity of control)−(luciferase activity of blank)}×100 Formula 1
# [2] = target: T1, tankyrase-2 (Homo sapiens, UniProt Q9H2K2); test: Tankyrase-2 enzyme inhibition test (Tankyrase-2 Chemiluminescent Assay Kit); assay type: biochemical; details: autoribosylation of GST-tankyrase-2 fusion protein, chemiluminescence
# T1 construct: purchased BPS Bioscience, Inc. 80566
# T1 sequence (Q9H2K2 1-1166): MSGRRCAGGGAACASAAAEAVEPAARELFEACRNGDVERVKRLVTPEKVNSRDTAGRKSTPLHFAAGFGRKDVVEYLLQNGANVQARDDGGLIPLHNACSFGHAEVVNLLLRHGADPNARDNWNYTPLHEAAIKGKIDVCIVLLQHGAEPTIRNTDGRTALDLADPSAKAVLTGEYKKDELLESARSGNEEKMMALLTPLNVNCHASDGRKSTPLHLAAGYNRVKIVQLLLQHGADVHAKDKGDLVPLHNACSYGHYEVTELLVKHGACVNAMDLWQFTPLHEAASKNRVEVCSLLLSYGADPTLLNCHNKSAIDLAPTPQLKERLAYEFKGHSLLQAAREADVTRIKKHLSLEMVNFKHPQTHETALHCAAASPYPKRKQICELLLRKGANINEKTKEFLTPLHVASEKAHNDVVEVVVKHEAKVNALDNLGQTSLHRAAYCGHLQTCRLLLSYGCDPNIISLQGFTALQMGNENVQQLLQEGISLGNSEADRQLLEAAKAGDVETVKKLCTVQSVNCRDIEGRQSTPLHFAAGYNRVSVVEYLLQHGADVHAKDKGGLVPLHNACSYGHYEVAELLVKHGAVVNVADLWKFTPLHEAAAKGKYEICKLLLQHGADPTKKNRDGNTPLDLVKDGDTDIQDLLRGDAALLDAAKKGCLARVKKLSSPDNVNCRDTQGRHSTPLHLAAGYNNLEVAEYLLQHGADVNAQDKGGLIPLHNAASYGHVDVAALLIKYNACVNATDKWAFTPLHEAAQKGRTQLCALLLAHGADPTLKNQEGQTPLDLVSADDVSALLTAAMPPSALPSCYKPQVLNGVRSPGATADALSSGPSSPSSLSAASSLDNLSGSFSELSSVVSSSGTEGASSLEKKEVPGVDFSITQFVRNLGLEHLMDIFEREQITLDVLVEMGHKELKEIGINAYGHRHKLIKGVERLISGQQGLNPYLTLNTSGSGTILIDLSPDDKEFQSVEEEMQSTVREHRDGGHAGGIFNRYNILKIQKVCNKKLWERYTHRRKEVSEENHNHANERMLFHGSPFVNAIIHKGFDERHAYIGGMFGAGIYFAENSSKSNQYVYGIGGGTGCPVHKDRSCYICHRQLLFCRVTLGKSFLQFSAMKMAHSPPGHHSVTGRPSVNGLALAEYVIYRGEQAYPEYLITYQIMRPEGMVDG
# Procedure: Test Example 2: Tankyrase-2 Enzyme Inhibition Test
# The enzyme activity of tankyrase-2 was evaluated using Tankyrase-2 Chemiluminescent Assay Kit (BPS Bioscience, Inc., Catalog No. 80566). The Tankyrase-2 Chemiluminescent Assay Kit is a kit for evaluating the enzyme activity of tankyrase-2 using autoribosylation of glutathione-S-transferase (GST)-tankyrase-2 fusion protein as an index. All the experimental materials except for PBS (PBST) buffer containing phosphate-buffered saline (PBS) and 0.05% Tween 20 are all included in the kit. The GST-tankyrase-2 enzyme diluted with 50 μL of 1× tankyrase buffer was added to the wells of a 96-well plate coated with glutathione. After the plate was left to stand overnight at 4° C., the plate was washed 3 times with the PBST buffer. 150 μL of blocking buffer was added thereto, and the plate was left to stand at room temperature for 30 minutes to block the wells. The plate was washed 3 times with the PBST buffer. Before the ribosylation reaction, an assay mixture containing a biotinylated substrate and a test compound diluted with 1× tankyrase buffer were mixed, whereby a reaction mixture was prepared. In order to start the ribosylation reaction, 50 μL of the reaction mixture was added to the wells. In a blank well, 1× tankyrase buffer was added in place of the reaction mixture containing a biotinylated substrate. The plate was left to stand at 30° C. for 1 hour. After the reaction, the plate was washed 3 times with the PBST buffer. Streptavidin-horseradish peroxidase (HRP) was diluted to 50-fold with the blocking buffer. The diluted streptavidin-HRP was added to the wells, and the plate was left to stand at room temperature for 30 minutes. The plate was washed 3 times with the PBST buffer. Immediately before use, 50 μL of the HRP chemiluminescent substrate A and 50 μL of the HRP chemiluminescent substrate B were mixed and 100 μL of the resulting mixture was added to the wells. The chemiluminescence was measured using a chemiluminescence measuring apparatus. The inhibition ratio was obtained according to the following formula 2. [Math. 2] Inhibition ratio (%)=100−{(chemiluminescence intensity when test compound was added)−(chemiluminescence intensity of blank)}/{(chemiluminescence intensity of control)−(chemiluminescence intensity of blank)}×100 Formula 2
# [3] = 1 μmol/L, DLD-1/TCF-Luc cells, luciferase activity after 18 hours
SMILES,"inhibition at 1 µM ([1]; DLD-1, 18 h) [%]",Inhibition ratio (%) at 1 μmol/L [2] [%],"Inhibition ratio (%) at 1 μmol/L [1, 3] [%]","inhibition at 1 µM [1, 3] [%]"
"N#Cc1cccc(N2C(=O)N(CC3CCN(c4ncnc5cc(C(=O)O)ccc45)CC3)Cc3ccccc32)c1 [Compound 25, 4-(4-{[1-(3-Cyanophenyl)-2-oxo-1,2-dihydroquinazolin-3(4H)-yl]methyl}piperidin-1-yl)quinazoline-7-carboxylic acid]",86,81,,
"N#Cc1cccc(N2C(=O)N(CC3CCN(c4ncnc5c[n+]([O-])ccc45)CC3)Cc3ccccc32)c1 [Compound 29, 4-(4-{[1-(3-Cyanophenyl)-2-oxo-1,2-dihydroquinazolin-3(4H)-yl]methyl}piperidin-1-yl)pyrido[3,4-d]pyrimidine-7-oxide]",74,87,,
"N#Cc1cc(N2C(=O)N(CC3CCN(c4nccn5ccnc45)CC3)Cc3ccccc32)ccn1 [Compound 30, 4-(3-{[1-(Imidazo[1,2-a]pyrazin-8-yl)piperidin-4-yl]methyl}-2-oxo-3,4-dihydroquinazolin-1(2H)-yl)picolinonitrile]",69,92,,
"COc1cncnc1N1CCC(CN2Cc3ccccc3N(c3ccnc(C#N)c3)C2=O)CC1 [Compound 32, 4-(3-{[1-(5-Methoxypyrimidin-4-yl)piperidin-4-yl]methyl}-2-oxo-3,4-dihydroquinazolin-1(2H)-yl)picolinonitrile]",76,94,,
"N#Cc1cc(N2C(=O)N(CC3CCN(c4nccc5nc[nH]c(=O)c45)CC3)Cc3ccccc32)ccn1 [Compound 34, 4-(2-Oxo-3-{[1-(4-oxo-3,4-dihydropyrido[4,3-d]pyrimidin-5-yl)piperidin-4-yl]methyl}-3,4-dihydroquinazolin-1(2H)-yl)picolinonitrile]",78,87,,
"N#Cc1cc(N2C(=O)N(CC3CCN(c4ncnc5c4NC(=O)CO5)CC3)Cc3ccccc32)ccn1 [Compound 35, 4-(2-Oxo-3-{[1-(6-oxo-6,7-dihydro-5H-pyrimido[4,5-b][1,4]oxazin-4-yl)piperidin-4-yl]methyl}-3,4-dihydroquinazolin-1(2H)-yl)picolinonitrile]",79,88,,
"N#Cc1cc(N2C(=O)N(CC3CCN(c4ncnc5[nH]c(=O)[nH]c45)CC3)Cc3ccccc32)ccn1 [Compound 36, 4-(2-Oxo-1-{[1-(8-oxo-8,9-dihydro-7H-purin-6-yl)piperidin-4-yl]methyl}-3,4-dihydroquinazolin-1(2H)-yl)picolinonitrile]",,88,79,
"N#Cc1cc(N2C(=O)N(CC3CCN(c4ncnc5cc(N6CCOCC6)ccc45)CC3)Cc3ccccc32)ccn1 [Compound 37, 4-(3-{[1-(7-Morpholinoquinazolin-4-yl)piperidin-4-yl]methyl}-2-oxo-3,4-dihydroquinazolin-1(2H)-yl)picolinonitrile]",82,87,,
"N#Cc1cc(N2C(=O)N(CC3CCN(c4cccc5n[nH]c(=O)n45)CC3)Cc3ccccc32)ccn1 [Compound 38, 4-(2-Oxo-3-{[1-(3-oxo-2,3-dihydro-[1,2,4]triazolo[4,3-a]pyridin-5-yl)piperidin-4-yl]methyl}-3,4-dihydroquinazolin-1(2H)-yl)picolinonitrile]",89,94,,
"N#Cc1cc(N2C(=O)N(CC3CCN(c4c(C(N)=O)ccnc4F)CC3)Cc3ccccc32)ccn1 [Compound 40, 3-(4-{[1-(2-Cyanopyridin-4-yl)-2-oxo-1,2-dihydroquinazolin-3(4H)-yl]methyl}piperidin-1-yl)-2-fluoroisonicotinamide]",78,93,,
"N#Cc1cc(N2C(=O)N(CC3CCN(c4ncnc5cc(N)cnc45)CC3)Cc3ccccc32)ccn1 [Compound 41, 4-(3-{[1-(7-Aminopyrido[3,2-d]pyrimidin-4-yl)piperidin-4-yl]methyl}-2-oxo-3,4-dihydroquinazolin-1(2H)-yl)picolinonitrile]",81,92,,
"CC(=O)N1CCc2ncnc(N3CCC(CN4Cc5ccccc5N(c5ccc(F)c(C#N)c5)C4=O)CC3)c2C1 [Compound 44, 5-(3-{[1-(6-Acetyl-5,6,7,8-tetrahydropyrido[4,3-d]pyrimidin-4-yl)piperidin-4-yl]methyl}-2-oxo-3,4-dihydroquinazolin-1(2H)-yl)-2-fluorobenzonitrile]",82,93,,
"N#Cc1cc(N2C(=O)N(CC3CCN(c4nccc5nc[nH]c(=O)c45)CC3)Cc3cccnc32)ccc1F [Compound 47, 2-Fluoro-5-(2-oxo-3-{[1-(4-oxo-3,4-dihydropyrido[4,3-d]pyrimidin-5-yl)piperidin-4-yl]methyl}-3,4-dihydropyrido[2,3-d]pyrimidin-1(2H)-yl)benzonitrile]",,80,,82
"COc1ccc2c(c1)CN(CC1CCN(c3nccc4nc[nH]c(=O)c34)CC1)C(=O)N2c1ccnc(C(N)=O)c1 [Compound 48, 4-(6-Methoxy-2-oxo-3-{[1-(4-oxo-3,4-dihydropyrido[4,3-d]pyrimidin-5-yl)piperidin-4-yl]methyl}-3,4-dihydroquinazolin-1(2H)-yl)picolinamide]",,93,,84
